Series [1] deals with T1, Serine/threonine-protein kinase PAK 4 (Homo sapiens, UniProt O96013). Put plainly: Inhibition of human PAK4 assessed as enzymatic activity incubated for 20 mins by filter binding method.
Target sequence in this assay (O96013 whole entry): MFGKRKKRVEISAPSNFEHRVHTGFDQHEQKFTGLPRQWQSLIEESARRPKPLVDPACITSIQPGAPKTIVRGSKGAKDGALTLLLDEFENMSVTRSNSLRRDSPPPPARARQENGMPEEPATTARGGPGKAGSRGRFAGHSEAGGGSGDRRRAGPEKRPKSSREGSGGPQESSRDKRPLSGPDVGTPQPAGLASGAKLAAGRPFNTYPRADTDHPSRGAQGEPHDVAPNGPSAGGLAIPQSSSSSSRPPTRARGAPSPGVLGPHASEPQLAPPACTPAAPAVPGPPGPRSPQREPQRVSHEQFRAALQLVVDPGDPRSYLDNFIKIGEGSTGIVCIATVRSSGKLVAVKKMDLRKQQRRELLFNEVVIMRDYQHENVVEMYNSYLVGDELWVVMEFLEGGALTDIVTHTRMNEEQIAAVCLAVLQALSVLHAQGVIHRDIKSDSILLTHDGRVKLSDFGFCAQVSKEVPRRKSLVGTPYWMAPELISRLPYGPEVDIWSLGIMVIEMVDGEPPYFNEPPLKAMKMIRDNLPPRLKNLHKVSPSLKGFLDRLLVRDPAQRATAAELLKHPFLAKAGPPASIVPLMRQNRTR
The target of series [2] is T1, Serine/threonine-protein kinase PAK 4. Put plainly: Inhibition of human PAK4 assessed as enzymatic activity at 2 uM incubated for 20 mins by filter binding method relative to control.
Target sequence in this assay (O96013 whole entry, looked up): as the sequence (O96013 whole entry) above
The next series deals with MDA-MB-231. Put plainly: Antiproliferative activity against human MDA-MB-231 cells assessed as cell growth inhibition incubated for 72 hrs by cell titre glo luminescence assay. In kind it is functional, cell-based. The following applies: MDA-MB-231, 72 h.
In series [3] the test system is MV4-11. Put plainly: Antiproliferative activity against human MV4-11 cells assessed as cell growth inhibition incubated for 72 hrs by cell titre glo luminescence assay. Type of series: functional, cell-based. The following applies: MV4-11, 72 h.
Series [4] is described as follows: Cytotoxicity against HEK293T cells assessed as cell growth inhibition incubated for 72 hrs by cell titre glo luminescence assay. Type of series: toxicity, cell-based, HEK-293T. The conditions noted are these: human.
For series [5], the system named is MV4-11. Put plainly: Induction of cell cycle arrest in human MV4-11 cells assessed as accumulation at G0/G1 phase at 5 nM incubated for 24 hrs by propidium iodide staining based flow cytometry analysis (reference value: 66.79 %). Type of series: functional.
Series [6] deals with MV4-11. Put plainly: Induction of cell cycle arrest in human MV4-11 cells assessed as accumulation at S phase at 5 nM incubated for 24 hrs by propidium iodide staining based flow cytometry analysis (reference value: 25.75 %). Type of series: functional.
The subject of series [7] is MV4-11. Nature of the series: Induction of cell cycle arrest in human MV4-11 cells assessed as accumulation at G2/M phase at 5 nM incubated for 24 hrs by propidium iodide staining based flow cytometry analysis (reference value: 7.46 %). Type of series: functional.
Series [8] concerns MV4-11. Nature of the series: Induction of cell cycle arrest in human MV4-11 cells assessed as accumulation at G0/G1 phase at 10 nM incubated for 24 hrs by propidium iodide staining based flow cytometry analysis (reference value: 66.79 %). In kind it is functional.
The test system of series [9] is MV4-11. Put plainly: Induction of cell cycle arrest in human MV4-11 cells assessed as accumulation at S phase at 10 nM incubated for 24 hrs by propidium iodide staining based flow cytometry analysis (reference value: 25.75 %). Type of series: functional.
Series [10] concerns MV4-11. Nature of the series: Induction of cell cycle arrest in human MV4-11 cells assessed as accumulation at G2/M phase at 10 nM incubated for 24 hrs by propidium iodide staining based flow cytometry analysis (reference value: 7.46 %). Type of series: functional.
Series [11] concerns MV4-11. Nature of the series: Induction of cell cycle arrest in human MV4-11 cells assessed as accumulation at G0/G1 phase at 50 nM incubated for 24 hrs by propidium iodide staining based flow cytometry analysis (reference value: 66.79 %). Type of series: functional.
In series [12] the test system is MV4-11. Put plainly: Induction of cell cycle arrest in human MV4-11 cells assessed as accumulation at S phase at 50 nM incubated for 24 hrs by propidium iodide staining based flow cytometry analysis (reference value: 25.75 %). In kind it is functional.
For series [13], the system named is MV4-11. Nature of the series: Induction of cell cycle arrest in human MV4-11 cells assessed as accumulation at G2/M phase at 50 nM incubated for 24 hrs by propidium iodide staining based flow cytometry analysis (reference value: 7.46 %). In kind it is functional.
Series [14] has as its system MV4-11. Nature of the series: Induction of apoptosis in human MV4-11 cells assessed as necrotic cells at 10 nM incubated for 48 hrs by annexin V-FITC and propidium iodide staining based flow cytometry analysis (reference value: 0.013 %). Type of series: functional.
Series [15] concerns MV4-11. Nature of the series: Induction of apoptosis in human MV4-11 cells assessed as viable cells at 10 nM incubated for 48 hrs by annexin V-FITC and propidium iodide staining based flow cytometry analysis (reference value: 95.6 %). In kind it is functional. The conditions noted are these: read-out: Activity.
Series [16] deals with MV4-11. Nature of the series: Induction of apoptosis in human MV4-11 cells assessed as early apoptotic cells at 10 nM incubated for 48 hrs by annexin V-FITC and propidium iodide staining based flow cytometry analysis (reference value: 3.71 %). Type of series: functional.
Series [17] has as its system MV4-11. Put plainly: Induction of apoptosis in human MV4-11 cells assessed as late apoptotic cells at 10 nM incubated for 48 hrs by annexin V-FITC and propidium iodide staining based flow cytometry analysis (reference value: 1.67 %). Type of series: functional.
Series [18] has as its system MV4-11. Nature of the series: Induction of apoptosis in human MV4-11 cells assessed as viable cells at 50 nM incubated for 48 hrs by annexin V-FITC and propidium iodide staining based flow cytometry analysis (reference value: 95.6 %). Type of series: functional. The following applies: read-out: Activity.
The test system of series [19] is MV4-11. Nature of the series: Induction of apoptosis in human MV4-11 cells assessed as early apoptotic cells at 50 nM incubated for 48 hrs by annexin V-FITC and propidium iodide staining based flow cytometry analysis (reference value: 3.71 %). In kind it is functional.
Series [20] relates to MV4-11. Nature of the series: Induction of apoptosis in human MV4-11 cells assessed as late apoptotic cells at 50 nM incubated for 48 hrs by annexin V-FITC and propidium iodide staining based flow cytometry analysis (reference value: 1.67 %). In kind it is functional.
Series [21] deals with MV4-11. Nature of the series: Induction of apoptosis in human MV4-11 cells assessed as necrotic cells at 50 nM incubated for 48 hrs by annexin V-FITC and propidium iodide staining based flow cytometry analysis (reference value: 0.013 %). Type of series: functional.
Series [22] relates to MV4-11. Nature of the series: Induction of apoptosis in human MV4-11 cells assessed as viable cells at 250 nM incubated for 48 hrs by annexin V-FITC and propidium iodide staining based flow cytometry analysis (reference value: 95.6 %). In kind it is functional. The following applies: read-out: Activity.
Series [23] has as its system MV4-11. Put plainly: Induction of apoptosis in human MV4-11 cells assessed as early apoptotic cells at 250 nM incubated for 48 hrs by annexin V-FITC and propidium iodide staining based flow cytometry analysis (reference value: 3.71 %). Type of series: functional.
The test system of series [24] is MV4-11. Nature of the series: Induction of apoptosis in human MV4-11 cells assessed as late apoptotic cells at 250 nM incubated for 48 hrs by annexin V-FITC and propidium iodide staining based flow cytometry analysis (reference value: 1.67 %). In kind it is functional.
The test system of series [25] is MV4-11. Put plainly: Induction of apoptosis in human MV4-11 cells assessed as necrotic cells at 250 nM incubated for 48 hrs by annexin V-FITC and propidium iodide staining based flow cytometry analysis (reference value: 0.013 %). Type of series: functional.
The target of series [26] is T1, Serine/threonine-protein kinase PAK 4. Put plainly: Inhibition of PAK4 phosphorylation at Ser474 residue in human MV4-11 cells at 50 to 800 nM incubated for 24 hrs by Western blot analysis. The conditions noted are these: dose 50-800 nM, DDE = dose-dependent effect. Type of series: cell-based.
Target sequence in this assay (O96013 whole entry, looked up): as the sequence (O96013 whole entry) above
Series [27] shares this target. Put plainly: Inhibition of human PAK4 assessed as inhibition constant.
Target sequence in this assay (O96013 whole entry): as above

Regarding `Nc1ccc(/C=C/C(=O)NCc2cc3cc(-c4ccc(C(=O)N5CCC(F)(F)CC5)cc4)cc(-c4ccc(F)cc4)c3o2)cn1` [PADNARSERTIB], in series [1], the concentration for half-maximal inhibition (IC50) stood at 0.1 µM.
Consider `OCC(O)CNc1nc(Nc2ccccc2)nc2[nH]ccc12` (stereo not given), for which the inhibition in [2] worked out at 82.4%.
Take `Fc1cccc(Nc2nc(NC3CCNCC3)c3cc[nH]c3n2)c1`: the IC50 in series [1] is 0.165 µM. In [2], the inhibition was found to be 38.3%.
Taken in the same sequence, the figures for `N[C@@H]1CCCN(c2nc(Nc3cccc(Cl)c3)nc3[nH]ccc23)C1` were 0.229 µM and 72.5%.
Consider `N[C@H]1CC[C@@H](Nc2nc(Nc3cccc(Cl)c3)nc3[nH]ccc23)CC1`, for which the results for the IC50 (with MDA-MB-231; in [1]; in the series on MV4-11 [3]) were 0.825 µM, 0.0027 µM and 0.0078 µM, respectively. For the same molecule, the 50% inhibitory concentration (IC50) at 72 h in series [4] was above 10 µM. For the same molecule, the Activity in the series on MV4-11 [5] is on record as 78.7%; in the series with MV4-11 [6] it was 17.34%; in the series with MV4-11 [7] it was 3.97%; in the series with MV4-11 [8], 88.81%; with MV4-11 [9], 8.71%; with MV4-11 [10], 2.48%. Moreover, the Activity in the series with MV4-11 [11] is 90.98%; with MV4-11 [12], 7.75%; with MV4-11 [13], 1.27%; in the series with MV4-11 [14], 0.032%; with MV4-11 [16], 4.28%; in the series with MV4-11 [17], 2.99%. The Activity in the series with MV4-11 [19] is listed as 11.9%; in the series on MV4-11 [20], 9.71%; in the series on MV4-11 [21], 0.043%; in the series with MV4-11 [23] it was 14.5%; with MV4-11 [24], 12.5%; in the series on MV4-11 [25], 0.087%. Further, the viability at 0.01 µM with MV4-11 [15] was found to be 92.7%. For the same molecule, in the series on MV4-11 [18], the viability at 0.05 µM came out at 78.4%. Also, the viability at 0.25 µM with MV4-11 [22] was 72.8%. For the same molecule, the inhibition entry in series [26] is “Dde”.
In the case of `OCCNc1nc(Nc2ccccc2)nc2[nH]ccc12`, in [2], the inhibition turned out to be 86.9%.
Consider `C[C@@H]1CN(C(=O)c2nc(Nc3cc(C4CC4)[nH]n3)c3cc(Cl)ccc3n2)CCN1`, for which the 50% inhibitory concentration (IC50) in series [1] amounted to 0.009 µM.
As to `c1ccc(Nc2nc(N3CCOCC3)c3cc[nH]c3n2)cc1`, the inhibition in series [2] was found to be 91.6%.
As for `Clc1cccc(Nc2nc(NC3CCNCC3)c3cc[nH]c3n2)c1`, in series [1], the concentration for half-maximal inhibition (IC50) turned out to be 0.0503 µM.
On to `N[C@H]1CCCN(c2nc(Nc3cccc(Cl)c3)nc3[nH]ccc23)C1`, for which the IC50 in [1] stood at 0.229 µM. In series [2], the inhibition came out at 38.3%.
Turning to `c1ccc(Nc2nc(NC3CCNCC3)c3cc[nH]c3n2)cc1`, the IC50 in series [1] turned out to be 2.94 µM. In addition, the inhibition in series [2] is 64.2%.
Consider `Clc1cccc(Nc2nc(NCC3CCNCC3)c3cc[nH]c3n2)c1`, for which the inhibition in series [2] amounted to 25.9%.
As for `CC1(N)CCN(c2nc(Nc3cccc(Cl)c3)nc3[nH]ccc23)CC1`, the inhibition in [2] was found to be 35.5%.
`COCCNc1nc2ccc(C#CC3(O)CCCCC3)cc2n1-c1ncnc(N)n1`: the inhibition constant Ki in series [27] was 0.0033 µM.
With `COc1cccc(Nc2nc(NC3CCNCC3)c3cc[nH]c3n2)c1`, the inhibition in [2] was determined as 46.2%.
As to `c1ccc(Nc2nc(N3CCNCC3)c3cc[nH]c3n2)cc1`, the inhibition in [2] amounted to 89.6%.
Same read-out and setting: in the case of `NCC1CCCN(c2nc(Nc3cccc(Cl)c3)nc3[nH]ccc23)C1` (stereo not given) it was 61%.
As for `N[C@H]1CC[C@H](Nc2nc(Nc3cccc(Cl)c3)nc3[nH]ccc23)CC1`, the half-maximal inhibitory concentration (IC50) with MDA-MB-231 worked out at 2.48 µM; in [1] it was 0.0202 µM; in the series with MV4-11 [3], 0.0383 µM. Further, the IC50 at 72 h in series [4] was determined as 7.39 µM.

The record behind these values is ChEMBL document CHEMBL5143622, “Synthesis and biological evaluation of 7H-pyrrolo [2,3-d] pyrimidine derivatives as potential p21-activated kinase 4 (PAK4) inhibitors” (Bioorg Med Chem, 2022).
